From PMC9745797 (2022)

Columns and labels:
[1] = test system: 5′-d(CGCATATATGCG)-3′ (DNA, duplex) CGCATATATGCG; test: native nESI-MS; details: K+ 100 μM (KCl), NH4+ 150 mM; 150 mM ammonium acetate, pH 7, 1% DMSO; 9 μM DNA, 100 μM compound
[2] = test system: 5′-d(CGCATATATGCG)-3′ (DNA, duplex) CGCATATATGCG; test: 1H NMR titration and NOESY; details: 50 mM phosphate pH 7.4, 9:1 H2O/D2O, 298 K (cooled to 274 K); 1 mM duplex; slow exchange

Cn1cc(NC(=O)c2cc(NC(=O)c3ccc(/C=C/c4cnc5ccccc5c4)cc3)cn2C)cc1C(=O)NCCN1CCOCC1
binding [1]: yes
binding [2]: yes
